# ChEMBL document CHEMBL1150412, “1,5-Diphenylpyrrole derivatives as antimycobacterial agents. Probing the influence on antimycobacterial activity of lipophilic substituents at the phenyl rings” (J Med Chem, 2008)
# Legend:
# [1] = test system: Mycobacterium tuberculosis; assay: Antimycobacterial activity against isoniazid-resistant Mycobacterium tuberculosis; format: functional
# [2] = test system: Mycobacterium tuberculosis; assay: Antimycobacterial activity against rifampicin-resistant Mycobacterium tuberculosis; format: functional
Compound,MIC [1] [µg/mL],MIC [2] [µg/mL]
CCCc1ccc(-n2c(-c3ccc(Cl)cc3)cc(CN3CCSCC3)c2C)cc1,> 16,0.25
CO[C@H]1/C=C/O[C@@]2(C)Oc3c(C)c(O)c4c(O)c(c(/C=N/N5CCN(C)CC5)c(O)c4c3C2=O)NC(=O)/C(C)=C\C=C\[C@H](C)[C@H](O)[C@@H](C)[C@@H](O)[C@@H](C)[C@H](OC(C)=O)[C@@H]1C [RIFAMPIN],0.25,> 64
Cc1ccc(-c2cc(CN3CCSCC3)c(C)n2-c2ccc(Cl)cc2)cc1,16,0.5
Cc1c(CN2CCN(C)CC2)cc(-c2ccc(Cl)cc2)n1-c1ccc(Cl)cc1,2,1
CCCc1ccc(-c2cc(CN3CCSCC3)c(C)n2-c2ccc(Cl)cc2)cc1,> 16,0.125
[H]/N=C(/N)N[C@H]1[C@H](O)[C@@H](O)[C@H](O[C@@H]2O[C@@H](C)[C@](O)(C=O)[C@H]2O[C@@H]2O[C@@H](CO)[C@H](O)[C@@H](O)[C@@H]2NC)[C@@H](N/C(N)=N\[H])[C@@H]1O (stereo in doubt) [STREPTOMYCIN],16,4
CCc1ccc(-c2cc(CN3CCSCC3)c(C)n2-c2ccc(Cl)cc2)cc1,16,0.25
Cc1c(CN2CCSCC2)cc(-c2ccc(C(C)C)cc2)n1-c1ccc(Cl)cc1,8,0.125
CCc1ccc(-n2c(-c3ccc(Cl)cc3)cc(CN3CCSCC3)c2C)cc1,16,0.5
NNC(=O)c1ccncc1 [ISONIAZID],> 16,0.25
Cc1c(CN2CCSCC2)cc(-c2ccc(Cl)cc2)n1-c1ccc(C(C)C)cc1,> 16,0.25
Cc1c(CN2CCSCC2)cc(-c2ccc(C(C)C)cc2)n1-c1ccc(F)cc1,> 16,0.25
Cc1ccc(-c2cc(CN3CCSCC3)c(C)n2-c2ccc(F)cc2)cc1,32,0.5
Cc1ccc(-n2c(-c3ccc(Cl)cc3)cc(CN3CCSCC3)c2C)cc1,> 16,0.5
